{"source": "patent US20250129083A1", "about": "“IMIDAZOTETRAZINE COMPOUNDS AND TREATMENT OF TMZ-RESISTANT CANCERS” (THE BOARD OF TRUSTEES OF THE UNIVERSITY OF ILLINOIS, priority 2022, published 2025)", "key": {"U87 cells": {"system": "U87 cells", "assay": "Killing kinetics study", "assay_type": "cell-based, human", "method": "FIG. 2A-F. (A) 7 day IC50 values (M) of compound 10 and CPZ in an expanded panel of GBM cell lines. Cell viability was assessed via the Alamar Blue assay, n≥3, error is SEM. (B-E) 7 day dose-response curves of TMZ and CPZ in cell lines with variable MGMT and MMR status. Error is SEM, n≥3. (F) Killing kinetics of CPZ compared to TMZ in the U87 cell line. Cells were treated with compound once and viability was assessed every 24 hours via Alamar Blue assay. Error is SEM, n≥2.\nKilling Kinetics Study. U87 cells were seeded in seven 96 well plates starting at 19,200 cells/well (for 24 hour time point) and serially diluted by two-fold for each subsequent 24 hour time point. At each time point, cell viability was assessed via Alamar Blue assay."}, "T98G cells": {"system": "T98G cells", "assay": "Cytotoxicity after pretreatment with MGMT inhibitor O6BG", "assay_type": "cell-based, human", "details": "T98G pretreated (3 hours) with O6BG vs non-pretreated", "method": "FIG. 3A-E. Investigation of the mechanism of action and efficacy of CPZ in MGMT+ cell lines. (A) Detection of O^6-methyl-2′-deoxyguanosine or O^6-propargyl-2′-deoxyguanosine in GL261 cells after treatment with TMZ or CPZ, respectively. GL261 cells were treated with the indicated concentration of compound for 8 hours before they were harvested and genomic DNA was extracted. DNA (10 μg) was hydrolyzed and submitted to LC-MS/MS for quantitation. Both O^6-Me-dG and O^6-proparyl-dG were below the limit of detection in the DMSO control. Error is SEM, n≥3. Cytotoxicity of TMZ (B) or CPZ (C) in T98G cells pretreated (3 hours) with MGMT inhibitor O6BG. Error is SEM, n≥3. (D) 7 day dose-response curves of TMZ and CPZ in GL261 cells. Error is SEM, n≥3. (E) 7 day dose-response curves of TMZ and CPZ in GL261 MGMT+ cells. Error is SEM, n≥3.\nTo further explore the ability of CPZ to evade MGMT-mediated resistance, MGMT-expressing T98G cells were pretreated with MGMT inhibitor O6BG followed by treatment with TMZ or CPZ. […] This cell death potentiation by TMZ upon treatment with an MGMT inhibitor was also observed in MGMT-expressing cell lines U118MG and RKO, whereas the efficacy of CPZ was again unaffected. […]"}, "[1]": {"assay": "Hepatic metabolism: stability in mouse liver microsomes", "assay_type": "in vitro ADME"}, "Brain tissue binding": {"assay": "Brain tissue binding", "assay_type": "in vitro ADME", "details": "10 uM, 1 h at 37 C in brain tissue homogenate"}, "[2]": {"assay": "Syngeneic subcutaneous model", "assay_type": "in vivo", "details": "C57BL/6 mice, 1×10^6 cells; 50 mg/kg IV 1×/day over 5 days from day 5", "method": "FIG. 10A-B. Syngeneic Subcutaneous Model (A, B). TABZ and TMZ in vivo: C57BL/6 mice were inoculated with 1×10^6 cells and treated xl/day over 5 days with either vehicle, TMZ, or TABZ (via IV, 50 mg/kg, starting on day 5)."}, "[3]": {"details": "cited from earlier work"}, "cancer cells": {"system": "cancer cells", "assay": "Rapid cancer cell death phenotype", "assay_type": "cell-based", "details": "relative to TMZ", "text": "FIG. 8A-C. Rapid Cancer Cell Death Phenotype."}, "[4]": {"assay": "Blood-brain barrier permeability", "details": "mice; 25 mg/kg IV; 15 minutes"}}}
{"molecule": "Cn1nnc2c(C(N)=O)ncn2c1=O", "note": "[TMZ, temozolomide, reference compound]", "values": [{"measurement": "Time to induce cell death in culture", "setting": "U87 cells; at 100 μM", "result": "5 to 10", "unit": "days"}, {"measurement": "Potentiation of cell death by O6BG pretreatment", "setting": "T98G cells", "result": "dramatic potentiation of cell death"}, {"measurement": "Stability (2 h, with MLM)", "setting": "[1]; percentage remaining relative to t0, mouse liver microsomes, SEM, n ≥ 2", "result": "95 ± 1", "unit": "%"}, {"measurement": "Stability (2 h, no MLM)", "setting": "[1]; percentage remaining, microsomes replaced with PBS", "result": "92 ± 0.2", "unit": "%"}, {"measurement": "Brain tissue binding, insoluble fraction, tissue homogenizer", "setting": "Brain tissue binding", "result": "40 ± 5", "unit": "%"}, {"measurement": "Brain tissue binding, insoluble fraction, ultrasonication", "setting": "Brain tissue binding", "result": "30 ± 3", "unit": "%"}, {"measurement": "Brain tissue binding, soluble fraction, tissue homogenizer", "setting": "Brain tissue binding", "result": "59 ± 5", "unit": "%"}, {"measurement": "Brain tissue binding, soluble fraction, ultrasonication", "setting": "Brain tissue binding", "result": "66 ± 3", "unit": "%"}, {"measurement": "Tumor growth", "setting": "[2]", "result": "exacerbation of tumor growth"}, {"measurement": "Half-life in vivo (human pharmacokinetics)", "setting": "[3]; human patients", "result": "1.5 to 2", "unit": "h"}, {"measurement": "Cerebral spinal fluid concentration as percentage of plasma concentration", "setting": "[3]; humans", "result": "about 20%"}]}
{"molecule": "C#CCn1nnc2c(Cl)ncn2c1=O", "note": "[CPZ, 8-chloro-3-(prop-2-yn-1-yl)imidazo[5,1-d][1,2,3,5]tetrazin-4(3H)-one]", "values": [{"measurement": "Time to near peak threshold of cell death", "setting": "U87 cells; treated once, viability every 24 hours", "result": "≤ 72", "unit": "h"}, {"measurement": "Potentiation of cell death by O6BG pretreatment", "setting": "T98G cells", "result": "No such enhancement in activity"}, {"measurement": "Speed of cell death induction", "setting": "cancer cells", "result": "induce cell death quickly relative to TMZ"}, {"measurement": "Increase in brain distribution relative to TMZ", "setting": "[4]", "result": "> 10", "unit": "fold"}]}
